In patent publication US20260217647A1, “CANCER CELL GROWTH INHIBITING COMPOSITION AND PROCESSED FOOD” (HAGIHARA FARM PRODUCTION INSTITUTE CO., LTD., priority 2023, published 2026):
pIC50: −log10 of the molar value.

Tested on: Jurkat cells
Assay: Growth-inhibiting activity on human leukemia T cell line Jurkat cells (viable cell counting reagent SF, 72 h)
Assay type: cell-based
Conditions: 72 h incubation, cell viability by absorbance A450-A630
Method: The cancer cell growth-inhibiting activity of each of the above samples was evaluated using the human leukemia T cell line, Jurkat.
A suspension of Jurkat cells was prepared at 2×10^5 cells/mL, and 50 μL of the suspension was seeded into each well of a 96-well plate. The evaluation sample was dissolved in DMSO and subsequently diluted 500 fold with culture medium. Immediately after dilution, 50 μL of the resulting solution was added to each well to initiate treatment. After incubation for 72 h, 10 μL of the viable cell counting reagent SF was added to each well. Following incubation for 2 to 3 hours to allow color development, absorbance at 450 nm and 630 nm was measured using a microplate reader. Cell viability was then calculated using the following formula (F1).
As, Ab, and Ac are defined as follows. • As: absorbance of evaluation well • Ab: absorbance of negative control well • Ac: absorbance of control well
The respective “absorbances” in the above formula were calculated by subtracting the absorbance at 630 nm (A630) from the absorbance at 450 nm (A450) and was represented by “A450-A630”. Furthermore, to calculate IC50, a linear approximation was performed on a graph showing the logarithmic values of the two concentrations that most narrowly bracketed a cell viability of 50%.

pIC50: < 4.00 | pIC50 (Homo sapiens, Jurkat, 72 h): ≤ 4.00
SMILES: CSC/C=C(\C)CCC[C@H](C)CCC[C@H](C)CCCC(C)C [PT37]
